# Measured values as given in US20200331904A1, “3-AMINO-[1,2,4]-TRIAZOLE DERIVATIVES AND THEIR USE FOR CONTROLLING UNDESIRED PLANT GROWTH” (Bayer CropScience Aktiengesellschaft, priority 2017, published 2020).
# Columns and labels:
# Type in all cases: in vivo
# Conditions in all cases: Table B1, application rate 320 g/ha, scored visually after about 3 weeks vs untreated controls
# Lolium rigidum = assay: Pre-emergence herbicidal efficacy, LOLRI
# Description: C.1 Pre-Emergence Herbicidal Action and Crop Plant Compatibility Seeds of monocotyledonous and dicotyledonous weed plants and crop plants are placed in plastic or organic planting pots and covered with soil. The compounds of the invention, formulated in the form of wettable powders (WP) or as emulsion concentrates (EC), are then applied onto the surface of the covering soil as aqueous suspension or emulsion with addition of 0.5% additive at a water application rate of […] (converted). After the treatment, the pots are placed in a greenhouse and kept under good growth conditions for the trial plants. After about 3 weeks, the effect of the preparations is scored visually in comparison with untreated controls as percentages. For example, 100% activity=the plants have died, 0% activity=like control plants. […] Here, for example, compound Nos. I-214 and I-196, when applied pre-emergence, have very good activity (80% to 100% herbicidal activity) against harmful plants such as Abutilon theophrasti, Amaranthus retroflexus, Echinochloa crus-galli, Lolium rigidum, Matricaria inodora, Polygonum convolvulus, Setaria viridis, Stellaria media, Veronica persica and Viola tricolor at an application rate of 0.32 kg of active substance or less per hectare. At the same time, some of the compounds according to the invention leave Gramineae crops such as barley, wheat, rye, millet/sorghum, corn, rice or sugar cane virtually undamaged when applied pre-emergence, even at high active compound dosages. In addition, some substances are also harmless to dicotyledonous crops such as soya, cotton, oilseed rape or sugar beet.
# Matricaria inodora = assay: Pre-emergence herbicidal efficacy, MATIN
# Outline: (§1)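 Seeds were sown in pots and covered with soil; WP or EC formulations were sprayed onto the soil surface as aqueous suspension or emulsion with 0.5% additive. Pots were kept in a greenhouse, and after about 3 weeks damage was rated visually as percent versus untreated controls (100% = plants dead, 0% = like control).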
# Setaria viridis = assay: Pre-emergence herbicidal efficacy, SETVI
# Description: (§2) C.1 Pre-Emergence Herbicidal Action and Crop Plant Compatibility
# (§3) Seeds of monocotyledonous and dicotyledonous weed plants and crop plants are placed in plastic or organic planting pots and covered with soil. The compounds of the invention, formulated in the form of wettable powders (WP) or as emulsion concentrates (EC), are then applied onto the surface of the covering soil as aqueous suspension or emulsion with addition of 0.5% additive at a water application rate of […] (converted). After the treatment, the pots are placed in a greenhouse and kept under good growth conditions for the trial plants. After about 3 weeks, the effect of the preparations is scored visually in comparison with untreated controls as percentages. For example, 100% activity=the plants have died, 0% activity=like control plants.
# (§4) ABUTH: Abutilon theophrasti ALOMY: Alopecurus myosuroides AMARE: Amaranthus retroflexus AVEFA: Avena fatua CYPES: Cyperus esculentus ECHCG: Echinochloa crus-galli LOLMU: Lolium multiflorum MATIN: Matricaria inodora PHBPU: Ipomoea purpurea POLCO: Polygonum convolvulus SETVI: Setaria viridis STEME: Stellaria media VERPE: Veronica persica VTOTR: Viola tricolor
# Viola tricolor = assay: Pre-emergence herbicidal efficacy, VIOTR
# Outline: as §1
# Abutilon theophrasti = assay: Pre-emergence herbicidal efficacy, ABUTH
# Description: as §2, §3, §4
# Echinochloa crus-galli = assay: Pre-emergence herbicidal efficacy, ECHCG
# Description: as §2, §3, §4
# Veronica persica = assay: Pre-emergence herbicidal efficacy, VERPE
# Description: as §2, §3, §4
# Stellaria media = assay: Pre-emergence herbicidal efficacy, STEME
# Outline: as §1
# Amaranthus retroflexus = assay: Pre-emergence herbicidal efficacy, AMARE
# Description: as §2, §3, §4
# Polygonum convolvulus = assay: Pre-emergence herbicidal efficacy, POLCO
# Description: as §2, §3, §4
Structure (SMILES),Herbicidal efficacy against LOLRI (Lolium rigidum),Herbicidal efficacy against MATIN (Matricaria inodora),Herbicidal efficacy against SETVI (Setaria viridis),Herbicidal efficacy against VIOTR (Viola tricolor),Herbicidal efficacy against ABUTH (Abutilon theophrasti),Herbicidal efficacy against ECHCG (Echinochloa crus-galli),Herbicidal efficacy against VERPE (Veronica persica),Herbicidal efficacy against STEME (Stellaria media),Herbicidal efficacy against AMARE (Amaranthus retroflexus),Herbicidal efficacy against POLCO (Polygonum convolvulus)
Cc1ccc2c(c1)C(Nc1nc3n(n1)CCN(C(=O)C1CC1)C3)C(C)C2 (stereo not drawn) [Example I-167],100%,100%,100%,100%,100%,100%,100%,100%,100%,100%
Cc1ccc2c(c1)C(Nc1nc3n(n1)CCCC[S+]3[O-])CCC2 (stereo not drawn) [Example I-246],100%,100%,100%,100%,80%,100%,100%,100%,100%,100%
Cc1ccc2c(c1)[C@H](Nc1nc3n(n1)CCCS3)CCO2 [Example I-376],100%,100%,100%,100%,100%,100%,100%,100%,100%,100%
Cc1ccc2c(c1)[C@H](Nc1nc3n(n1)CCCCS3(=O)=O)CC2 [Example I-365],100%,100%,100%,100%,100%,90%,100%,100%,100%,100%
Cc1ccc2c(c1)[C@H](Nc1nc3n(n1)CCCC[S+]3[O-])CC2 (stereo partly drawn) [Example I-370],100%,100%,100%,100%,100%,100%,100%,100%,100%,100%
Fc1ccc2c(c1)[C@H](Nc1nc3n(n1)CCCCS3)CCC2 [Example I-215],100%,100%,100%,100%,100%,100%,100%,100%,100%,100%
Cc1ccc2c(c1)[C@H](Nc1nc3n(n1)CCN(S(=O)(=O)C(C)C)C3)[C@@H](C)C2 [Example I-191],100%,100%,100%,100%,100%,100%,100%,100%,100%,100%
Cc1ccc2c(c1)[C@H](Nc1nc3n(n1)CCCC[S+]3[O-])CCO2 (stereo partly drawn) [Example I-380],80%,100%,100%,100%,100%,100%,100%,100%,100%,100%
Cc1ccc2c(c1)[C@H](Nc1nc3n(n1)CCN(S(=O)(=O)C(C)C)C3)CC2 [Example I-197],80%,100%,100%,100%,100%,90%,100%,100%,100%,80%
Cc1ccc2c(c1)C(Nc1nc3n(n1)CCC(=O)N3CC1CC1)CCC2 (stereo not drawn) [Example I-254],100%,100%,100%,100%,100%,80%,100%,100%,100%,100%
Cc1ccc2c(c1)[C@H](Nc1nc3n(n1)CCN(C(=O)C1CC1)C3)CC2 [Example I-175],100%,100%,100%,100%,100%,100%,100%,100%,100%,100%
Cc1ccc2c(c1)C(Nc1nc3n(n1)CCN(C(=O)c1ccc(Cl)cc1)C3)C(C)C2 (stereo not drawn) [Example I-171],100%,100%,100%,100%,100%,90%,100%,100%,100%,100%
